Series [1] relates to Male Sprague-Dawley rats. The series is described as follows: Gastropathy model: total gastric lesions after a single oral dose. In kind it is in vivo, rat. As to the method:
Rats were fasted for 18 hours prior to the study. […] Drugs were administered orally as a single dose in the morning and water removed. Two and one-half hours after dosing, rats were injected with 1 ml of 10 mg/ml Evans Blue solution and sacrificed 30 minutes later. Stomachs were removed, placed in weigh boats containing cold PBS, and re-coded with letters to blind the observer. Stomachs were then opened along the greater curvature, any contents removed and then placed flat with the lumen facing up to score blue-stained lesions for gastric toxicity according to the following criteria: First, the number of small rounded lesions were counted followed by measurement of total length of linear lesions of greater than or equal to 2 mm. The two numbers obtained (round lesion number and linear length) were added together to give a total gastropathy score expressed as Total Gastric Lesions.

In another series the test system is Male Lewis rats. The series is described as follows: Adjuvant-induced arthritis: paw volume. The following applies: oral daily on days 8-15, day 15, equimolar doses, FIG. 3. In kind it is in vivo, rat.
In series [2] the test system is Male Sprague-Dawley rats. The series is described as follows: Enteropathy model: intestinal erosions and ulcers after oral dosing. The following applies: diclofenac vs equimolar compound 54, vehicle PEG, FIG. 1.
Procedure: Enteropathy: Male Sprague-Dawley rats (150-174 g) were obtained from Harlan. Animals were allowed to acclimatize to the facility for a minimum of 3 days and provided with food and water ad libitium. […] Drugs were administered orally either as a single dose (late morning) or twice daily between 8:00-10:00 and 4:00-5:00 beginning with a morning dose for a total of three days. Groups contained 6-8 animals per treatment. On the fourth day each rat was injected intravenously with 1 ml of a 10 mg/ml solution of Evan's Blue to stain the damaged blood vessels in intestinal erosions and ulcers. Animals were sacrificed 10 to 20 minutes after administration of Evan's Blue. The small intestine was then removed from each rat and placed in a large weigh boat in cold PBS, stored briefly in a refrigerator until boats were re-coded to blind the observer. Each intestinal segment was then opened longitudinally and, using a fiber optic light, scored for erosions and ulceration according to the following criteria:
After Evan's Blue injection, intestinal lesions are seen as shallow lesions that are moderately stained around the edge, but with little to no staining in the middle. The depth of an erosion is sometimes only detectable when the edge of the tissue is lifted to reflect light at a different angle. Erosions are usually small and round or oval, but are sometimes as much as 1-2 mm wide, and as long as 1-2 cm, running along the area of mesenteric attachment. When erosions are elongated, the length is measured in mm and divided by 2; otherwise, the erosions are merely counted individually. Note that some areas of intestinal tissue stain blue, but are not erosions. These tend to be near the mesenteric membrane attachment sites and may represent areas of increased permeability that have not progressed to the extent that cell loss has occurred.
Ulcers: An ulcer is a deep lesion penetrating the muscularis mucosa. It is usually thickened and inflamed. After Evan's Blue injection, ulcers present several different types of appearance. […] All ulcers are quantified by measuring their long dimensions in mm.

Entries after “also recorded” stand apart in the source; their conditions may differ.

For `Cc1csc(=S)n1OC(=O)Cc1ccccc1Nc1c(Cl)cccc1Cl` [Compound 54], the “gastric lesion formation compared with Diclofenac” value in the series with Male Sprague-Dawley rats [1] (rat model of gastropathy, equivalent doses) is given as “significantly less gastric lesion formation”. Also, in the series with Male Sprague-Dawley rats [1] (rats, oral single dose, relative to equimolar diclofenac, FIG. 2), the “less gastric lesion (total length) than an equimolar dose of diclofenac” value is listed as 73%. For the same compound, the “inhibition of paw volume increase in the uninjected feet (anti-inflammatory activity)” value with Male Lewis rats is given as “equivalent efficacy to equimolar doses of Diclofenac”. Besides, the “total length of intestinal ulcers (ulcerogenic effect / ulcer formation)” value in the series with Male Sprague-Dawley rats [2] is listed as “significantly less; also recorded: no ulcerogenic effect”.

As to `O=C(O)Cc1ccccc1Nc1c(Cl)cccc1Cl` [Diclofenac, diclofenac, reference compound], the “total length of intestinal ulcers (ulcerogenic effect / ulcer formation)” value in the series with Male Sprague-Dawley rats [2] is recorded as “substantial ulceration”.

The record behind these values is patent publication US6620813B1, “Hydroxamate derivatives of non-steroidal anti-inflammatory drugs” (Medinox, Inc., priority 2002, dated 2003).
